Measured values: publication PMC7452891, “Cytokinin fluoroprobe reveals multiple sites of cytokinin perception at plasma membrane and endoplasmic reticulum” (Nature Communications, 2020)

What was measured:
AHK3 [1] = molecular target: T1, AHK3 (Arabidopsis thaliana, UniProt Q9C5U1); test: competitive radioligand binding assay ([[…]-3H]tZ, [[…]-3H]iP) with E. coli cells expressing the receptor; format: cell-based
T1 construct: expressed in E. coli KMI001 (pSTV28-AHK3)
T1 sequence (Q9C5U1 1-1036): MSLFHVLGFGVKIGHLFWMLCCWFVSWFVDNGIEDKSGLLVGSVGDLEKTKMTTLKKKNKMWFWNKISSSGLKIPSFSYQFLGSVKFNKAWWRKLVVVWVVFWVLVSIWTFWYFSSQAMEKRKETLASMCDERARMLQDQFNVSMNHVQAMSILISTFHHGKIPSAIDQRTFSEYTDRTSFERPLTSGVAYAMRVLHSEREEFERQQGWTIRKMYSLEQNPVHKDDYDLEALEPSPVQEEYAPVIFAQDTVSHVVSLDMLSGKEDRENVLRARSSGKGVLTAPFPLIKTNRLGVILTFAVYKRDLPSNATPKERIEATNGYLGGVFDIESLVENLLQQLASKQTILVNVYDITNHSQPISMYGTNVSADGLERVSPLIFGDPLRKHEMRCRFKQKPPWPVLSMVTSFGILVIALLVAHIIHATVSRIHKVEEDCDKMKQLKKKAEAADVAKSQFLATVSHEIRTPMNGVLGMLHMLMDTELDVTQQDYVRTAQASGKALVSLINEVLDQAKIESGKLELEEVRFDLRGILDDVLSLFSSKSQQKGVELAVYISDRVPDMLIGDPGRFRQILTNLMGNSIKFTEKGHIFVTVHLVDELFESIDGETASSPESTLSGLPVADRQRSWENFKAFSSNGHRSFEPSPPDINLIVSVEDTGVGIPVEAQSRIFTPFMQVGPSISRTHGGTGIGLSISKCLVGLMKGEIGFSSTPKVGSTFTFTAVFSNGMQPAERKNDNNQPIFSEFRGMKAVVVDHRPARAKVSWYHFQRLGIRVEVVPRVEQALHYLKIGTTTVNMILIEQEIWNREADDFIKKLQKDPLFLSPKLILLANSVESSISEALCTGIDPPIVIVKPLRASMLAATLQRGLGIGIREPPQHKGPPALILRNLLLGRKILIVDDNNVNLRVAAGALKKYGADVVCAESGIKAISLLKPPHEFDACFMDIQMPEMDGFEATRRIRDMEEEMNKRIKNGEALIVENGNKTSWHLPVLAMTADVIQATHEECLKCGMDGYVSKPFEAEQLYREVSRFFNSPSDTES

[2] = molecular target: T2, CRE1/AHK4 (ARABIDOPSIS HISTIDINE KINASE 4) (Arabidopsis thaliana, UniProt Q9C5U0); test: as above; format: cell-based
T2 construct: expressed in E. coli KMI001 (pIN-III-AHK4)

[3] = molecular target: T3, AtCKX2 (CYTOKININ OXIDASE/DEHYDROGENASE) (Arabidopsis thaliana, UniProt Q9FUJ3); test: in vitro enzymatic reaction with AtCKX2 (kcat, Vmax/Km); format: biochemical
T3 construct: gene CKX2
T3 sequence (Q9FUJ3 23-501): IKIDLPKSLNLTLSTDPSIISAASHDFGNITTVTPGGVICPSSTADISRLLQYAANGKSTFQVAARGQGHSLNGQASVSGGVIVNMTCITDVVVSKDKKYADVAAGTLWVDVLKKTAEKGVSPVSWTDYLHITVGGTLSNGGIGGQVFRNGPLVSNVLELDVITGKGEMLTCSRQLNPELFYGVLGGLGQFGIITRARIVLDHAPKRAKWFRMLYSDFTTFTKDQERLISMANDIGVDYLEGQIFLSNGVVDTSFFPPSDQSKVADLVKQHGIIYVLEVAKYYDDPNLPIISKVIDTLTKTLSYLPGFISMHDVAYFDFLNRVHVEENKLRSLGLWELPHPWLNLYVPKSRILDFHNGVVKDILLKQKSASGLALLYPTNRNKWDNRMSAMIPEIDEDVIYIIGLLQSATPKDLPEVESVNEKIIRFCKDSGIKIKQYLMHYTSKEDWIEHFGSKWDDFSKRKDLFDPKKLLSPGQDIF

[4] = molecular target: T2, CRE1/AHK4 (ARABIDOPSIS HISTIDINE KINASE 4); test: radioligand ([[…]-3H]tZ, […]) in competitive binding assay with E. coli cells
AHK3 [5] = molecular target: T1, AHK3; test: as above

T2 sequence (Q9C5U0 whole entry): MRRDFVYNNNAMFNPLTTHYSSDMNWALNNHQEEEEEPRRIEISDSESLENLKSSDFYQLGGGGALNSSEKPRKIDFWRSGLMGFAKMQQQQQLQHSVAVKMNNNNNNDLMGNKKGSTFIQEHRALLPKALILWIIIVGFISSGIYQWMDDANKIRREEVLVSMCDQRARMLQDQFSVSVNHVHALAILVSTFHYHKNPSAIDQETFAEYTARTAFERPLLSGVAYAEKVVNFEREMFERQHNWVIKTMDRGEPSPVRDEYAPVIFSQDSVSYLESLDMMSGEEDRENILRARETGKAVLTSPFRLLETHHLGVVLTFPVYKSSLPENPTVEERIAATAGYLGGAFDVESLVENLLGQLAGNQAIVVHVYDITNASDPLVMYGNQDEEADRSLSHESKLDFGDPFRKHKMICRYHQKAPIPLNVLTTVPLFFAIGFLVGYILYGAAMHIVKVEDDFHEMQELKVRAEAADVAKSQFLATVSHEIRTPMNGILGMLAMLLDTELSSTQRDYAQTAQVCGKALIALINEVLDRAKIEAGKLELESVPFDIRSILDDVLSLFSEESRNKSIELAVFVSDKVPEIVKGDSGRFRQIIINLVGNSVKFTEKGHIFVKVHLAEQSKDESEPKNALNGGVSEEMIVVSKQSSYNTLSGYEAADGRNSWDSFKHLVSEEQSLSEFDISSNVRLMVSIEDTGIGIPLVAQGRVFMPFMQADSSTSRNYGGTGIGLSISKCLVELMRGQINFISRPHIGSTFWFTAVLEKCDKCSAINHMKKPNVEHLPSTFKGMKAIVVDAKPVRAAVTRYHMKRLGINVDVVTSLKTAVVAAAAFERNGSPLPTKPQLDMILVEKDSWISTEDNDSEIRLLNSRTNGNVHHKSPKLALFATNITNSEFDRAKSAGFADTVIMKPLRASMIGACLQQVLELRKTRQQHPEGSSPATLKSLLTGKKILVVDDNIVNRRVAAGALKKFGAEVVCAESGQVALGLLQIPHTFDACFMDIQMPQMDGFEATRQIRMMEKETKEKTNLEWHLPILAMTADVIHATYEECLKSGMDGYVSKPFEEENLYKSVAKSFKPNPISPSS

SMILES	Ki (AHK3 [1])	Ki [2]	in vitro enzymatic reaction with AtCKX2 (kcat, Vmax/Km) [3]	radioligand ([2-3H]tZ, 3 nM) in competitive binding assay with E. coli cells [4]	radioligand ([2-3H]tZ, 3 nM) in competitive binding assay with E. coli cells (AHK3 [5])
CC(C)=CCNc1ncnc2c1ncn2CCNc1ccc([N+](=O)[O-])c2nonc12 [iP-NBD]	~37 µM	~1.4 µM	AtCKX2 converted iP-NBD to the product with approx. six times lower turnover rate kcat compared to the parental iP		
C/C(=C\CNc1ncnc2[nH]cnc12)CO [tZ]				iP-NBD competes for receptor binding with radiolabelled natural cytokinins iP and tZ	iP-NBD competes for receptor binding with radiolabelled natural cytokinins iP and tZ
